The test system of one experiment is HCT-116. The experiment is described as follows: Cytotoxicity against human HCT116 cells after 1 hr by MTT assay. In kind it is functional, cell-based. The following applies: HCT-116, 1 h. In general terms: Tetrazolium assays rely on reduction of a dye to a coloured formazan, in cell work by metabolically active cells.
The next experiment concerns HT-29. Put plainly: Cytotoxicity against human HT-29 cells after 1 hr by MTT assay. The following applies: HT-29, 1 h. In kind it is functional, cell-based.

Molecules are shown by their SMILES.

These results are taken from ChEMBL document CHEMBL1154302, “Cytotoxic acacic acid glycosides from the roots of Albizia coriaria” (J Nat Prod, 2009).

As a reminder, the IC50 is the point on the concentration scale where inhibition reaches its midpoint.

Turning to `C=C[C@](C)(CC/C=C(\C)C(=O)O[C@H]1[C@H](O)[C@@H](O)[C@H](O[C@](C)(C=C)CC/C=C(\C)C(=O)O[C@H]2[C@H](O)[C@@H](O)[C@H](O[C@](C)(C=C)CC/C=C(/C)C(=O)O[C@H]3C[C@]4(C(=O)O[C@@H]5O[C@H](CO)[C@@H](O)[C@H](O)[C@H]5O[C@@H]5O[C@@H](C)[C@H](O[C@@H]6O[C@@H](CO)[C@H](O)[C@H]6O)[C@@H](O[C@@H]6O[C@H](CO)[C@@H](O)[C@H](O)[C@H]6O)[C@H]5O)[C@H](O)C[C@]5(C)C(=CC[C@@H]6[C@@]7(C)CC[C@H](O[C@@H]8O[C@H](CO[C@@H]9O[C@H](C)[C@H](O)[C@H](O)[C@H]9O)[C@@H](O)[C@H](O)[C@H]8O[C@@H]8O[C@H](CO)[C@@H](O)[C@H](O)[C@H]8O)C(C)(C)C7CC[C@]65C)[C@@H]4CC3(C)C)O[C@@H]2C)O[C@@H]1C)O[C@@H]1O[C@H](C)[C@@H](O)[C@H](O)[C@H]1O` (some centres undefined) [CORIARIOSIDE A], the IC50 was 4200 nM in the experiment on HCT-116 and 6700 nM in the experiment with HT-29.
The like results for `CC(=O)O[C@H]1C(=O)[C@@]2(C)[C@H]([C@H](OC(=O)c3ccccc3)[C@]3(O)C[C@H](OC(=O)[C@H](O)[C@@H](NC(=O)c4ccccc4)c4ccccc4)C(C)=C1C3(C)C)[C@]1(OC(C)=O)CO[C@@H]1C[C@@H]2O` [PACLITAXEL] were, in that order, 3.5 nM and 3.4 nM.
